Converted amounts (≈) assume the structure as drawn. “Also recorded” adds a separate entry of the source.
Legend:
Escherichia coli EC14 = format: cell-based; details: E. coli EC14; agar dilution
Procedure: (§1) The MIC's in Tables VII and VIII were determined by standard agar-dilution assays.

[1] = test system: Haemophilus influenzae 76; format: cell-based; details: H. influenzae 76, ampicillin-resistant strain; agar dilution
Procedure: as §1

[2] = test system: Haemophilus influenzae C.L.; format: cell-based; details: H. influenzae C.L., ampicillin-sensitive strain; agar dilution
Procedure: as §1

[3] = test system: Klebsiella pneumoniae X26; format: cell-based; details: K. pneumoniae X26; agar dilution
Procedure: as §1

[4] = test system: Pseudomonas aeruginosa X239; format: cell-based; details: P. aeruginosa X239; agar dilution
Procedure: as §1

[5] = test system: Staphylococcus aureus V41; format: cell-based; details: S. aureus V41, penicillin-resistant strain; agar dilution
Procedure: as §1

[6] = test system: Staphylococcus aureus X1.1; format: cell-based; details: S. aureus X1.1; agar dilution
Procedure: as §1

[7] = test system: Staphylococcus aureus X400; format: cell-based; details: S. aureus X400, methicillin-resistant strain; agar dilution
Procedure: as §1

[8] = test system: Staphylococcus epidermidis 222; format: cell-based; details: S. epidermidis 222; agar dilution
Procedure: as §1

[9] = test system: Staphylococcus epidermidis 270; format: cell-based; details: S. epidermidis 270; agar dilution
Procedure: as §1

[10] = test system: Streptococcus Group D 2041; format: cell-based; details: agar dilution
Procedure: as §1

[11] = test system: Streptococcus Group D X66; format: cell-based; details: agar dilution
Procedure: as §1

[12] = test system: Streptococcus pneumoniae Park I; format: cell-based; details: S. pneumoniae Park I; agar dilution
Procedure: as §1

[13] = test system: Streptococcus pyogenes C203; format: cell-based; details: S. pyogenes C203; agar dilution
Procedure: as §1

Staphylococcus aureus [14] = assay: protection of mice experimentally infected with test organism (Table X); format: in vivo
Procedure: (§2) The A82846 antibiotics have also shown in vivo antimicrobial activity against experimentally-induced infections in laboratory animals. When two doses of test compound were administered to mice experimentally infected with the test organism, the activity observed was measured as an ED50 value [effective dose in mg/kg to protect 50% of the test animals: see Warren Wick, et al., J. Bacteriol. 81, 233-235 (1961)].
(§3) ^a mg/kg × 2; doses administered subcutaneously to mice 1 and 4

Streptococcus pneumoniae [15] = assay: as above; format: in vivo
Procedure: as §2, §3

Streptococcus pyogenes [16] = assay: as above; format: in vivo
Procedure: as §2, §3

[17] = serum half-life after intravenous administration to rats; details: rat, in vivo, rats, intravenously
From the text: The A82846 antibiotics have excellent in vitro and in vivo activity against Gram-positive pathogenic bacteria. A particularly unexpected attribute of these antibiotics is their long serum half-life.

Staphylococcus aureus [18] = assay: MIC by standard agar-dilution assay (Table VIII); format: cell-based; details: Staphylococcus aureus, 20 strains tested, read-out: MIC
Procedure: as §1

[19] = test system: Staphylococcus epidermidis; assay: MIC by standard agar-dilution assay (Table VIII); format: cell-based; details: Staphylococcus epidermidis, 20 strains tested, read-out: MIC
Procedure: as §1

Streptococcus mutans = assay: MIC by standard agar-dilution assay (Table VIII); format: cell-based; details: Streptococcus mutans, 2 strains tested, read-out: MIC
Procedure: as §1

Streptococcus pneumoniae [20] = assay: MIC by standard agar-dilution assay (Table VIII); format: cell-based; details: Streptococcus pneumoniae, 20 strains tested, read-out: MIC
Procedure: as §1

Streptococcus pyogenes [21] = assay: MIC by standard agar-dilution assay (Table VIII); format: cell-based; details: Streptococcus pyogenes, 12 strains tested, read-out: MIC
Procedure: as §1

Streptococcus salivaris = assay: MIC by standard agar-dilution assay (Table VIII); format: cell-based; details: Streptococcus, 1 strain tested, read-out: MIC
Procedure: as §1

Streptococcus sanguis = assay: MIC by standard agar-dilution assay (Table VIII); format: cell-based; details: Streptococcus, 4 strains tested, read-out: MIC
Procedure: as §1

[22] = test system: Streptococcus sp. group. D; assay: MIC by standard agar-dilution assay (Table VIII); format: cell-based; details: Streptococcus, 20 strains tested, read-out: MIC
Procedure: as §1

Clostridium difficile = assay: MIC against anaerobic bacteria, standard agar-dilution assay (Table IX); format: cell-based; details: Clostridioides difficile; 19 strains; Gram-positive anaerobe; 24-hour incubation; read-out: MIC
Clostridium perfringens = assay: microbe, parasite or virus in culture; format: cell-based; details: Clostridium perfringens, 24 h
Eubacterium aerofaciens = assay: MIC against anaerobic bacteria, standard agar-dilution assay (Table IX); format: cell-based; details: Collinsella aerofaciens; 1 strain; Gram-positive anaerobe; 24-hour incubation; read-out: MIC
[23] = test system: Peptococcus asaccharolyticus; assay: as above; format: cell-based; details: Peptoniphilus asaccharolyticus; 3 strains; Gram-positive anaerobe; 24-hour incubation; read-out: MIC
Peptococcus prevoti = assay: as above; format: cell-based; details: 4 strains; Gram-positive anaerobe; 24-hour incubation; read-out: MIC
Peptococcus variabilis = assay: as above; format: cell-based; details: 1 strain; Gram-positive anaerobe; 24-hour incubation; read-out: MIC
Peptococcus constellatus = assay: as above; format: cell-based; details: Streptococcus constellatus; 1 strain; Gram-positive anaerobe; 24-hour incubation; read-out: MIC
Peptococcus magnus = assay: as above; format: cell-based; details: Finegoldia magna; 3 strains; Gram-positive anaerobe; 24-hour incubation; read-out: MIC
[24] = test system: Peptostreptococcus anaerobius; assay: as above; format: cell-based; details: Peptostreptococcus anaerobius; 8 strains; Gram-positive anaerobe; 24-hour incubation; read-out: MIC
[25] = test system: Peptostreptococcus intermedius; assay: as above; format: cell-based; details: Peptostreptococcus; 3 strains; Gram-positive anaerobe; 24-hour incubation; read-out: MIC
Propionibacterium acnes = assay: as above; format: cell-based; details: Cutibacterium acnes; 19 strains; Gram-positive anaerobe; 24-hour incubation; read-out: MIC
Bacteroides fragilis = assay: as above; format: cell-based; details: Bacteroides fragilis; 3 strains; Gram-negative anaerobe; 24-hour incubation; read-out: MIC
[26] = test system: Bacteroides thetaiotaomicron; assay: as above; format: cell-based; details: Bacteroides thetaiotaomicron; 1 strain; Gram-negative anaerobe; 24-hour incubation; read-out: MIC
[27] = test system: Bacteroides melaninogenicus; assay: as above; format: cell-based; details: 2 strains; Gram-negative anaerobe; 24-hour incubation; read-out: MIC
Bacteroides vulgatis = assay: as above; format: cell-based; details: Bacteroides; 1 strain; Gram-negative anaerobe; 24-hour incubation; read-out: MIC
Bacteroides corrodens = assay: as above; format: cell-based; details: Eikenella corrodens; 1 strain; Gram-negative anaerobe; 24-hour incubation; read-out: MIC
Fusobacterium symbiosum = assay: as above; format: cell-based; details: Fusobacterium; 1 strain; Gram-negative anaerobe; 24-hour incubation; read-out: MIC
[28] = test system: Fusobacterium necrophorum; assay: as above; format: cell-based; details: Fusobacterium necrophorum; 1 strain; Gram-negative anaerobe; 24-hour incubation; read-out: MIC
[29] = test system: experimental descending pyelonephritis infection in rats; assay: Rat Descending Pyelonephritis Test (Table XI); format: in vivo
Procedure: In one important aspect of their antibacterial activity, the A82846 antibiotics are useful for treating pyelonephritis. […] This test was carried out using a procedure like that described in U.S. Pat. No. 4,208,403.
^a Doses twice per day subcutaneously for 6 days

[30] = test system: Streptococcus faecalis X-66; assay: Rat Endocarditis Test, catheter-induced (Table XII); format: in vivo, rats; details: 16 days, 20 mg/kg × 28, subcutaneous at 12-hour intervals for 14 days
Procedure: The A82846 antibiotics are also useful in the treatment of endocarditis. […] In this test, rats were prepared by inserting a plastic catheter into the right carotid artery, feeding it down into the […] of the heart and anchoring it securely. The animals were allowed to rest two days, and then the test organism, Streptococcus faecalis X-66, was administered intravenously. The organism titer was approximately 5×10^8 /mL; 0.5 mL was administered.
The compounds were administered subcutaneously 15 minutes prior to infection and at 12-hour intervals for 14 days, a total of 28 treatments. The animals were held 2 days after therapy; then, the hearts were removed, homogenized, diluted and plated on trypticase soy agar. Plates were incubated 48 hours before counting.
^a Catheterinduced endocarditis using Streptococcus faecalis X66
^b Subcutaneous doses at 12hour intervals for 14 days
^c % of animals sacrificed with 4 log drop

[31] = human medicine; cited from earlier work
Clostridium septicum = assay: MIC against anaerobic bacteria, standard agar-dilution assay (Table IX); details: Clostridium septicum, 24 h
[32] = test system: Cultures A82846 and A82846.1; assay: resistance to antibiotics, antibiotic sensitivity discs on seeded agar plates; details: disc 30 μg
[33] = mice, subcutaneous, 1 and 4 hours postinfection
[34] = 2 mg/kg × 12, subcutaneous twice per day for 6 days
[35] = 5 mg/kg × 12, subcutaneous twice per day for 6 days
[36] = 10 mg/kg × 12, subcutaneous twice per day for 6 days

## CN[C@@H](CC(C)C)C(=O)N[C@H]1C(=O)N[C@H](CC(N)=O)C(=O)N[C@H]2C(=O)N[C@H]3C(=O)N[C@@H](C(=O)NC(C(=O)O)c4cc(O)cc(O)c4-c4cc3ccc4O)[C@@H](O[C@H]3C[C@](C)(N)[C@H](O)[C@@H](C)O3)c3ccc(cc3)Oc3cc2cc(c3O[C@H]2O[C@@H](CO)[C@@H](O)[C@H](O)[C@@H]2O[C@H]2C[C@](C)(N)[C@H](O)[C@@H](C)O2)Oc2ccc(cc2)[C@@H]1O (stereo partly shown) [A82846C]
Escherichia coli EC14
  MIC: -- (Not active at 128 mcg/mL, the highest level tested)
[1]
  MIC: -- (Not active at 128 mcg/mL, the highest level tested)
[2]
  MIC: -- (Not active at 128 mcg/mL, the highest level tested)
[3]
  MIC: -- (Not active at 128 mcg/mL, the highest level tested)
[4]
  MIC: -- (Not active at 128 mcg/mL, the highest level tested)
[5]
  MIC: 1 µg/mL (≈ 0.656 µM)
[6]
  MIC: 1 µg/mL (≈ 0.656 µM)
[7]
  MIC: 1 µg/mL (≈ 0.656 µM)
[8]
  MIC: 1 µg/mL (≈ 0.656 µM)
[9]
  MIC: 1 µg/mL (≈ 0.656 µM)
[10]
  MIC: 4 µg/mL (≈ 2.63 µM)
[11]
  MIC: 2 µg/mL (≈ 1.31 µM)
[12]
  MIC: 2 µg/mL (≈ 1.31 µM)
[13]
  MIC: 1 µg/mL (≈ 0.656 µM)
Staphylococcus aureus [14]; [33]
  ED50 Value: 2.18 mg/kg × 2
Streptococcus pneumoniae [15]; [33]
  ED50 Value: 5.87 mg/kg × 2
Streptococcus pyogenes [16]; [33]
  ED50 Value: 2.71 mg/kg × 2

## CN[C@H](CC(C)C)C(=O)N[C@H]1C(=O)N[C@@H](CC(N)=O)C(=O)N[C@H]2C(=O)N[C@H]3C(=O)N[C@H](C(=O)N[C@H](C(=O)O)c4cc(O)cc(O)c4-c4cc3ccc4O)[C@H](O)c3ccc(c(Cl)c3)Oc3cc2cc(c3O[C@@H]2O[C@H](CO)[C@@H](O)[C@H](O)[C@H]2O[C@H]2C[C@](C)(N)[C@H](O)[C@H](C)O2)Oc2ccc(cc2Cl)[C@H]1O [Vancomycin, vancomycin, reference compound]
[17]
  half-life: 45 min
Staphylococcus aureus [18]
  MIC: 0.5 to 2 µg/mL (≈ 0.345 to 1.38 µM)
[19]
  MIC: 1 to 2 µg/mL (≈ 0.69 to 1.38 µM)
Streptococcus mutans
  MIC: 0.125 to 2 µg/mL (≈ 0.0863 to 1.38 µM)
Streptococcus pneumoniae [20]
  MIC: 0.015 to 4 µg/mL (≈ 0.0104 to 2.76 µM)
Streptococcus pyogenes [21]
  MIC: 0.5 µg/mL (≈ 0.345 µM)
Streptococcus salivaris
  MIC: 0.5 µg/mL (≈ 0.345 µM)
Streptococcus sanguis
  MIC: 0.5 to 1 µg/mL (≈ 0.345 to 0.69 µM)
[22]
  MIC: 1 to 2 µg/mL (≈ 0.69 to 1.38 µM)
Clostridium difficile
  MIC: 0.5 to 4 µg/mL (≈ 0.345 to 2.76 µM)
Clostridium perfringens
  MIC: 2 µg/mL (≈ 1.38 µM)
Eubacterium aerofaciens
  MIC: 2 µg/mL (≈ 1.38 µM)
[23]
  MIC: 1 µg/mL (≈ 0.69 µM)
Peptococcus prevoti
  MIC: 1 to 4 µg/mL (≈ 0.69 to 2.76 µM)
Peptococcus variabilis
  MIC: 1 µg/mL (≈ 0.69 µM)
Peptococcus constellatus
  MIC: 1 µg/mL (≈ 0.69 µM)
Peptococcus magnus
  MIC: 0.25 to 1 µg/mL (≈ 0.173 to 0.69 µM)
[24]
  MIC: 0.25 to 2 µg/mL (≈ 0.173 to 1.38 µM)
[25]
  MIC: 0.5 to 1 µg/mL (≈ 0.345 to 0.69 µM)
Propionibacterium acnes
  MIC: 2 to 16 µg/mL (≈ 1.38 to 11 µM)
Bacteroides fragilis
  MIC: 32 to 64 µg/mL (≈ 22.1 to 44.2 µM)
[26]
  MIC: 64 µg/mL (≈ 44.2 µM)
[27]
  MIC: > 128 µg/mL
Bacteroides vulgatis
  MIC: 64 µg/mL (≈ 44.2 µM)
Bacteroides corrodens
  MIC: 64 µg/mL (≈ 44.2 µM)
Fusobacterium symbiosum
  MIC: 4 µg/mL (≈ 2.76 µM)
[28]
  MIC: 1 µg/mL (≈ 0.69 µM)
Staphylococcus aureus [14]; sc, read-out: ED50 Value
  ED50: 1.3 mg/kg
Streptococcus pneumoniae [15]; sc, read-out: ED50 Value
  ED50: 1.52 mg/kg
Streptococcus pyogenes [16]; sc, read-out: ED50 Value
  ED50: 0.72 mg/kg
[29]; [34]
  Percent of Rats Cured: 38%
  Percent of Rats with a 4-Log Reduction in Titer: 75%
[29]; [35]
  Percent of Rats Cured: 38%
  Percent of Rats with a 4-Log Reduction in Titer: 88%
[29]; [36]
  Percent of Rats Cured: 63%
  Percent of Rats with a 4-Log Reduction in Titer: 100%
[30]
  % Cured: 100%
[30]; % of animals sacrificed
  % With 4 Log Drop: 100%
[31]
  side effects: ototoxicity; also recorded: nephrotoxicity
Clostridium septicum
  MIC: 2 µg/mL (≈ 1.38 µM)
[32]
  antibiotic resistance: resistant
